Measurements as given in ChEMBL document CHEMBL5729519, “Methods and composition of 4-substituted benzoylpiperazine-1-substituted carbonyls as beta-catenin/B-cell lymphoma 9 inhibitors” (2023).

Molecular target: beta-catenin-B-cell lymphoma 9 protein complex (Homo sapiens, UniProt P35222+O00512)
Experiment: Alphascreen Assay: Alphascreen Assays to Determine the Apparent Kd Values for Wild-Type and Mutant β-Catenin/BCL9 InteractionsThe experimental detail using AlphaScreen to determine the apparent Kd values for β-catenin/BCL9 and β-catenine/E-cadherin PPIs has been described previously (Zhang et al. (2015) Anal. Biochem. 469: 43-53). The concentrations of mutant β-catenin proteins used in the assays were the same as that of wild-type β-catenin.
Assay type: protein-complex assay

beta-catenin-B-cell lymphoma 9 protein complex, sequence (O00512 whole entry, stated change not applied): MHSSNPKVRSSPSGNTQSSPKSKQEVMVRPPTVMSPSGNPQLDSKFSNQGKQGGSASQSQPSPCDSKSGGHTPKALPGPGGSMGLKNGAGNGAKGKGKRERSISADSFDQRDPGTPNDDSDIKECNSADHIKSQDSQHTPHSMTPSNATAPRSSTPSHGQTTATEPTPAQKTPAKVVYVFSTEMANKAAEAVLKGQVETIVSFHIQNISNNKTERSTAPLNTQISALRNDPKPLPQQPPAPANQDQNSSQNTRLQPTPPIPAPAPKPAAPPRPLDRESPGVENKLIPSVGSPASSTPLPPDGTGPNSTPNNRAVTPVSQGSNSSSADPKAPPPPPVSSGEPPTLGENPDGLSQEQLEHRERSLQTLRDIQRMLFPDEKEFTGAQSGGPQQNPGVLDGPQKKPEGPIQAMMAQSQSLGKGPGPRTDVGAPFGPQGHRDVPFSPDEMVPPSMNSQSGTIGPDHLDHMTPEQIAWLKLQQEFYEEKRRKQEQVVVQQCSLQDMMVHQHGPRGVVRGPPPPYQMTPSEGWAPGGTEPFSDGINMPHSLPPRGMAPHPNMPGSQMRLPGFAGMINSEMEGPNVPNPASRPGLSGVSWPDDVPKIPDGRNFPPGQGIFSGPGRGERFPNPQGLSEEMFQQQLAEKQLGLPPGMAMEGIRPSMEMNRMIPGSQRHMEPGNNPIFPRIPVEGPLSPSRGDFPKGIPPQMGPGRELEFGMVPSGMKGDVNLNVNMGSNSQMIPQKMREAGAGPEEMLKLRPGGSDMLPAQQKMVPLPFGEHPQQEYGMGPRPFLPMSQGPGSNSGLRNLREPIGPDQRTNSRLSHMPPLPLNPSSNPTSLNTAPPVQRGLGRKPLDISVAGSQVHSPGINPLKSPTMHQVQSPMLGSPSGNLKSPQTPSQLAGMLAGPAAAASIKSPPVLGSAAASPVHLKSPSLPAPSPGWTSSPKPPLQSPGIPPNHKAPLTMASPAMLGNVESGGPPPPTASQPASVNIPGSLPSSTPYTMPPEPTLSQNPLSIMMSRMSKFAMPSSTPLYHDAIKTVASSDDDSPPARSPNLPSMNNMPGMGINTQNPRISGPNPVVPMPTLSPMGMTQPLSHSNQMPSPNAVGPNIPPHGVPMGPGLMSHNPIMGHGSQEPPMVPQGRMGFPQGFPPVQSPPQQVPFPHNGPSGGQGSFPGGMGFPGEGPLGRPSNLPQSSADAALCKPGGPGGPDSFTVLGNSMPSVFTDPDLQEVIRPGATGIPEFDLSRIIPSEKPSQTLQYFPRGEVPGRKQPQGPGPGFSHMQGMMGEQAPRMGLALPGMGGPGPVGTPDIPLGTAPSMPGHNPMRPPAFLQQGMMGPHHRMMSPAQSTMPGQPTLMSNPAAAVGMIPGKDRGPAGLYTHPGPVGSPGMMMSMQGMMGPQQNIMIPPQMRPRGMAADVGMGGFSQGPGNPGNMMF
beta-catenin-B-cell lymphoma 9 protein complex, sequence (P35222 2-781 limits assumed, stated change not applied): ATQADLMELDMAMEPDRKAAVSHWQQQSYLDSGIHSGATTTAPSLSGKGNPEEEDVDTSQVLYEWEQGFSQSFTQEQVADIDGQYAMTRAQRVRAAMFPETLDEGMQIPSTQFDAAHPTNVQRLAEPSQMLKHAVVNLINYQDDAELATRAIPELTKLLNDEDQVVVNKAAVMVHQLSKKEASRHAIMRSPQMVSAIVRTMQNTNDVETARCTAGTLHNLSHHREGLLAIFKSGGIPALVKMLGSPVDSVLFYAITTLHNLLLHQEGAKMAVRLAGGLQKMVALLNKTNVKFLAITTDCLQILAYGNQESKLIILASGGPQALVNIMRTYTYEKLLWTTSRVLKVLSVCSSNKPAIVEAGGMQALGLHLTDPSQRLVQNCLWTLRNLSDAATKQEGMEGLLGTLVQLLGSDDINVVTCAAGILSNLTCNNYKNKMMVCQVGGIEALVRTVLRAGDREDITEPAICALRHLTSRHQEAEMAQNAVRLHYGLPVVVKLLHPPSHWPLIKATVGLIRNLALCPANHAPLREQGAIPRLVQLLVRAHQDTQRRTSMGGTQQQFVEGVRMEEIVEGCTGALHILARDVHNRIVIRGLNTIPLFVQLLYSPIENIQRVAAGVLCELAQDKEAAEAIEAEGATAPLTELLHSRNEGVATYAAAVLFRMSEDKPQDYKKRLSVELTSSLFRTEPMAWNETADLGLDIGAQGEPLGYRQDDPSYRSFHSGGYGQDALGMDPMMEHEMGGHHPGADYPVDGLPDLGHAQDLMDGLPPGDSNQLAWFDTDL

CC(C)c1cc2c(c(O)c1O)[C@@]1(C(=O)O)CCCC(C)(C)[C@@H]1CC2
Ki: 5.3 µM
